Columns and labels:
hMagT1 (human MagT1) [1] = target: T1, hMagT1 (human MagT1) (Homo sapiens, UniProt Q9H0U3); experiment: two-microelectrode voltage clamp, Xenopus oocytes, Mg2+-evoked current; format: cell-based; details: 10 μM compound, -125 mV, n = 5; activator; control current 0.59 ± 0.09 μA
T1 construct: full-length ORF, 335 residues, 38,036 Da; subcloned in pEYFP-N1, cRNA injected in Xenopus laevis oocytes; no fusion tag stated
T1 sequence (Q9H0U3 30-335): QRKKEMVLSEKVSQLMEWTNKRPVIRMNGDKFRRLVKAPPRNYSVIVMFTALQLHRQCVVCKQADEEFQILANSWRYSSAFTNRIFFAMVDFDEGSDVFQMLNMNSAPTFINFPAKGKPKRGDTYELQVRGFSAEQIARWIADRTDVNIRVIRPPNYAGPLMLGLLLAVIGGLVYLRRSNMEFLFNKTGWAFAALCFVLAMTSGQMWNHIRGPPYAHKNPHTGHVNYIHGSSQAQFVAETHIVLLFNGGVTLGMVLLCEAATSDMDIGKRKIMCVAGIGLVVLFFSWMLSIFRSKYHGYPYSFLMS

hMagT1 (human MagT1) [2] = target: T1, hMagT1 (human MagT1); experiment: as above; format: cell-based; details: 10 μM compound, -125 mV, n = 7; inhibitor; control current 0.59 ± 0.09 μA

current at 10 μM (hMagT1 (human MagT1) [1]) | residual current at 10 μM (hMagT1 (human MagT1) [2]) | SMILES
0.80 ± 0.18 μA | – | COC(=O)C1=C(C)NC(C)=C([N+](=O)[O-])C1c1ccccc1C(F)(F)F (centres unmarked) [BAY K8644]
– | 0.15 ± 0.02 μA | CCOC(=O)C1=C(C)NC(C)=C(C(=O)OC)C1c1cccc([N+](=O)[O-])c1 (centres unmarked) [nitrendipine]

Reference: paper PMC1129089, “Identification and characterization of a novel mammalian Mg^2+ transporter with channel-like properties” (BMC Genomics, 2005)
